Laboratory results as given in US9174951B2, “Glucose transporter inhibitors” (The Ohio State University Research Foundation, priority 2012, dated 2015).
“Also recorded” adds a separate entry of the source.

What was measured:
[1] = system: human mammary epithelial cells (HMECs); assay: MTT cell viability assay, normal mammary epithelial cells; assay type: cell-based; conditions: 72 h, up to 10 μM
Description: (§1) Cells and Cell Culture. LNCaP prostate cancer cells were obtained from the American Type Culture Collection (Manassas, Va.). Cells were maintained in 10% fetal bovine serum (FBS)-supplemented RPMI 1640 medium (Invitrogen, Carlsbad, Calif.). Normal human mammary epithelial cells (HMEC) and normal human prostate epithelial cells (PrEC) were obtained from Lonza (Walkersville, Md.) and were maintained in Mammary Epithelial Cell Growth Medium (MEGM) and Prostate Epithelial Cell Growth Medium (PrEGM) (Lonza, Walkersville, Md.), respectively.
(§2) Cell Viability Assay. Cell viability was determined using the 3-(4,5-dimethylthiazol-2-yl)-2,5-diphenyltetrazolium bromide (MTT) assay. Cancer cells were seeded at 5000 cells/well and normal cells were seeded at 8000 cells/well in 96-well plates and incubated in 10% FBS-supplemented medium for 24 h. Cells were then treated with individual agents for 72 h. Drug-containing medium was replaced with medium containing MTT (0.5 mg/mL), followed by incubation at 37° C. for 1 h. After removal of medium, the reduced MTT dye in each well was solubilized in 100 μL of DMSO and absorbance at 570 nm was measured.

[2] = system: PC-3 cells; assay: MTT cell viability assay, PC-3; assay type: cell-based; conditions: Homo sapiens, 72 h, 10% FBS
Procedure: as §2
(§3) Compound 30 was evaluated for antiproliferative activity in panels of different human cancer cells lines, including those of prostate, breast and pancreatic cancers. In all experiments, cells were treated with a range of concentrations of Compound 30 in the presence of 10% fetal bovine serum (FBS). Cell viability was then determined after 72 h of treatment using the 3-(4,5-dimethylthiazol-2-yl)-2,5-diphenyltetrazolium bromide (MTT) assay. […] It is noteworthy that despite this high antiproliferative potency, normal human prostate epithelial cells (PrECs) were resistant to the cytotoxic effect of Compound 30 even at 10 μM.

[3] = system: PANC1 cell line; assay: MTT cell viability assay, PANC1; assay type: cell-based; conditions: Homo sapiens, PANC-1, 72 h, 10% FBS, read-out: IC50, viability of PANC1 cells
Procedure: as §2, §3

[4] = system: PANC1-GemR (gemcitabine-resistant subline); assay: MTT cell viability assay, PANC1-GemR; assay type: cell-based; conditions: Homo sapiens, 72 h, 10% FBS, read-out: IC50, viability of PANC1-GemR cells
Procedure: as §2, §3

[5] = system: MDAMB-468 cells; assay: MTT cell viability assay, MDAMB-468; assay type: cell-based; conditions: Homo sapiens, MDA-MB-468, 72 h, 10% FBS
Procedure: as §2, §3

[6] = system: MDA-MB-231 cells; assay: MTT cell viability assay, MDA-MB-231; assay type: cell-based; conditions: Homo sapiens, 72 h, 10% FBS
Procedure: as §2, §3

[7] = system: SKBR3 cells; assay: MTT cell viability assay, SKBR3; assay type: cell-based; conditions: Homo sapiens, SK-BR-3, 72 h, 10% FBS
Procedure: as §2, §3

[8] = system: LNCaP cells; assay: [3H]2-DG glucose uptake assay in LNCaP cells; assay type: cell-based, human
Procedure: Screening of the focused compound library to identify lead glucose uptake inhibitors.
Glucose Uptake Assay. LNCaP cells were seeded in six-well plates (3×10^5 cells/well) for 24 h. […] The cells were lysed in […] lysis buffer (10 mM Tris-HCl pH 8.0, 0.1% SDS) and aliquots were taken for measurement of radioactivity using a scintillation counter (Beckman LS6500).

[9] = system: BxPC3 cells; assay: MTT cell viability assay, BxPC3; assay type: cell-based; conditions: Homo sapiens, BXPC-3, 72 h, 10% FBS
Procedure: as §2, §3

[10] = system: LNCaP cells; assay: Western blot analysis of energy restriction-associated markers in LNCaP cells; assay type: cell-based, human
Procedure: FIG. 4. (A) Dose-dependent suppressive effects of compounds 1, 2, 4, 5, 28, and 30 on the viability of LNCaP cells by MTT assays in 10% FBS-containing RPMI 1640 medium after 72 h of drug treatment. Column, mean; bars, SD (N=6). (B) Dose-dependent effect of compound 30 on the viability of normal prostate epithelial cells (PrECs) and human mammary epithelial cells (HMECs) after 72 h of treatment. Column, mean; bars, SD (N=6). (C) Western blot analysis of the dose-dependent effects of compound 30 on markers associated with apoptosis (PARP cleavage), β-TrCP-mediated protein degradation (β-TrCP, cyclin D1, Sp1, and AR), AMPK activation (p-AMPK, p-mTOR, and pp706SK), ER stress (GRP78 and GADD153), and epigenetic activation of KLF6.
Plasmid Construction, Transient Transfection and Immunoblotting. The full length GLUT1, GLUT4, and GLUT9 ORF cDNA clones were purchased from Addgene (Cambridge, Mass.) and GLUT3 ORF cDNA was purchased from Origene Technologies (Rockville, Md.). GLUT1, GLUT3, and GLUT9 were subcloned into the HindIII/SalI sites and GLUT4 was subcloned into the EcoRI/SalI sites of pEGFP-N2 expression vector (Clontech, Palo Alto, Calif.). Transfections were performed by electroporation using Nucleofector kit R of the Amaxa Nucleofector system (Lonza, Walkersville, Md.) according to the manufacturer's protocol. Immunoblotting was performed using cells lysates harvested with SDS lysis buffer (1% SDS, 50 mM Tris-HCl pH 8.0, 10 mM EDTA) containing 1× protease inhibitor cocktail (Sigma) and phosphatase inhibitor and were electrophoresed in 8˜12% SDS polyacrylamide gels and then transferred onto nitrocellulose membranes. After blotting in 5% nonfat dry milk, the membranes were incubated with primary antibodies at 1:1,000 dilution in TBS-Tween 20 overnight at 4° C., and then secondary antibodies conjugated with horseradish peroxidase at 1:5,000 dilution in TBS-Tween 20 for 1 hour at room temperature. Protein bands were visualized on X-ray film using an enhanced chemiluminescence system.

[11] = system: DU-145 cells; assay: MTT cell viability assay, DU-145; assay type: cell-based; conditions: Homo sapiens, 72 h, 10% FBS
Procedure: as §2, §3

[12] = system: MCF-7 cells; assay: MTT cell viability assay, MCF-7; assay type: cell-based; conditions: Homo sapiens, MCF7, 72 h, 10% FBS
Procedure: as §2, §3

[13] = system: normal human prostate epithelial cells (PrECs); assay: MTT cell viability assay, normal prostate epithelial cells; assay type: cell-based; conditions: 72 h, up to 10 μM
Description: as §1, §2

IC50 [2]: 1.5 to 1.7 µM
IC50 [3]: ~2.5 µM
IC50 [4]: ~2.5 µM
IC50 [5]: 1.5 µM
IC50 [6]: 1.9 µM
IC50 [7]: 1.6 µM
IC50 ([8]; Homo sapiens, LNCaP, Krebs-Ringer phosphate buffer, 37° C., 30 min of drug treatment, read-out: IC50 in blocking [3H]2-DG uptake into LNCaP cells): 2.5 µM
IC50 [9]: ~7.5 µM
IC50 [11]: 1.5 to 1.7 µM
IC50 [12]: ~0.7 µM
SMILES: CC(CN1C(=O)S/C(=C\c2ccc(O)c(C(F)(F)F)c2)C1=O)(CC(F)(F)F)CC(F)(F)F [Compound 30, 5-(4-Hydroxy-3-trifluoromethyl-benzylidene)-3-[4,4,4-trifluoro-2-methyl-2-(2,2,2-trifluoro-ethyl)-butyl]-thiazolidine-2,4-dione]
cytotoxic effect in HMECs [1]: resistant; also recorded: no appreciable cytoxicity; also recorded: no appreciable cytotoxicity
inhibition of [3H]2-DG uptake into LNCaP cells (screening, in words) ([8]; each at 5 μM, 30 min of exposure): substantially improved potency relative to compound 5
AMPK phosphorylation [10]: increases
PARP cleavage (apoptosis) [10]: dose-dependent increase
expression of ER stress markers GRP78 and GADD153 [10]: increased expression
expression of KLF6 [10]: increased the expression
expression of cyclin D1, Sp1 and AR [10]: downregulation
levels of p-mTOR and p-p70S6K [10]: concomitant decreases
β-TrCP expression [10]: dose dependently increased
cytotoxic effect in PrECs [13]: resistant; also recorded: no appreciable cytoxicity; also recorded: no appreciable cytotoxicity
